Test: mn = molality of the nth substance listed, in mol/kg
Settings: Liquid, Vibrating tube method

[Br-].[Li+] [lithium bromide] + CCO
Settings	mass density [kg/m3]
373.16 K, 5125 kPa, m1 = 0.5972	762.2
373.16 K, 9909 kPa, m1 = 1.462	822.87
373.16 K, 29954 kPa, m1 = 0.2335	764.93
373.16 K, 40172 kPa, m1 = 0.5972	798.56
373.16 K, 49979 kPa, m1 = 0.5972	807.22
373.16 K, 79993 kPa, m1 = 1.462	881.25
373.16 K, 89924 kPa, m1 = 1.462	887.37
373.16 K, 99892 kPa, m1 = 2.272	936.43
373.17 K, 1353 kPa, m1 = 2.272	860.5
373.17 K, 20097 kPa, m1 = 1.462	833.45
373.17 K, 29993 kPa, m1 = 1.462	842.95
373.17 K, 49993 kPa, m1 = 1.462	860.02
373.17 K, 50023 kPa, m1 = 0.2335	783.79
373.17 K, 59801 kPa, m1 = 0.5972	815.22
373.17 K, 99791 kPa, m1 = 1.462	893.1
373.18 K, 4985 kPa, m1 = 2.272	864.78
373.18 K, 9782 kPa, m1 = 2.272	870.51
373.19 K, 19637 kPa, m1 = 2.272	879.78
373.19 K, 29927 kPa, m1 = 2.272	888.82
373.19 K, 39864 kPa, m1 = 2.272	896.99
373.19 K, 40176 kPa, m1 = 1.462	851.97
398.11 K, 79836 kPa, m1 = 2.272	910.54
398.12 K, 10085 kPa, m1 = 1.462	801.33
398.12 K, 39724 kPa, m1 = 2.272	879.8
398.12 K, 49958 kPa, m1 = 2.272	888.51
398.12 K, 59977 kPa, m1 = 2.272	896.37
398.12 K, 69928 kPa, m1 = 2.272	903.66
398.13 K, 5252 kPa, m1 = 1.462	795.21
398.13 K, 29993 kPa, m1 = 2.272	870.74
398.13 K, 39727 kPa, m1 = 3.368	934.47
398.14 K, 9704 kPa, m1 = 2.272	848.87
398.14 K, 9986 kPa, m1 = 2.833	879.45
398.14 K, 19987 kPa, m1 = 3.368	916.46
398.14 K, 20117 kPa, m1 = 2.272	860.65
398.14 K, 29928 kPa, m1 = 0.2335	744.1
398.14 K, 29993 kPa, m1 = 3.368	926
398.14 K, 39959 kPa, m1 = 1.462	834.18
398.14 K, 40001 kPa, m1 = 0.5972	779.67
398.14 K, 49956 kPa, m1 = 2.833	917.53
398.14 K, 89925 kPa, m1 = 2.833	945.26
398.14 K, 99863 kPa, m1 = 0.5972	827.19
398.15 K, 1326 kPa, m1 = 2.833	868.98
398.15 K, 1425 kPa, m1 = 0.9499	756.04
398.15 K, 2012 kPa, m1 = 3.368	896.84
398.15 K, 2214 kPa, m1 = 1.462	790.21
398.15 K, 2451 kPa, m1 = 0.2335	705.58
398.15 K, 2804 kPa, m1 = 0.5972	733.32
398.15 K, 5002 kPa, m1 = 2.833	873.54
398.15 K, 5024 kPa, m1 = 0.2335	709.8
398.15 K, 5025 kPa, m1 = 0.9499	761.36
398.15 K, 9911 kPa, m1 = 3.368	905.89
398.15 K, 9986 kPa, m1 = 0.9499	768.11
398.15 K, 10023 kPa, m1 = 0.2335	717.61
398.15 K, 19859 kPa, m1 = 1.462	812.89
398.15 K, 19923 kPa, m1 = 0.9499	780.63
398.15 K, 19925 kPa, m1 = 2.833	890.37
398.15 K, 29784 kPa, m1 = 0.9499	791.83
398.15 K, 29946 kPa, m1 = 1.462	823.95
398.15 K, 29996 kPa, m1 = 0.5972	769.06
398.15 K, 39926 kPa, m1 = 0.9499	802.25
398.15 K, 39941 kPa, m1 = 0.2335	754.26
398.15 K, 40021 kPa, m1 = 2.833	909.38
398.15 K, 49925 kPa, m1 = 1.462	843.34
398.15 K, 49926 kPa, m1 = 3.368	942.62
398.15 K, 49931 kPa, m1 = 0.2335	764.05
398.15 K, 49993 kPa, m1 = 0.5972	789.19
398.15 K, 50024 kPa, m1 = 0.9499	811.67
398.15 K, 59926 kPa, m1 = 0.9499	820.12
398.15 K, 59926 kPa, m1 = 2.833	925.07
398.15 K, 69784 kPa, m1 = 0.9499	827.92
398.15 K, 69953 kPa, m1 = 0.2335	781.36
398.15 K, 69979 kPa, m1 = 0.5972	805.77
398.15 K, 79787 kPa, m1 = 0.5972	813.07
398.15 K, 79935 kPa, m1 = 0.9499	835.45
398.15 K, 80002 kPa, m1 = 2.833	938.86
398.15 K, 89921 kPa, m1 = 0.2335	795.82
398.15 K, 89936 kPa, m1 = 0.9499	842.54
398.15 K, 89963 kPa, m1 = 2.272	917.33
398.15 K, 89994 kPa, m1 = 0.5972	820.32
398.15 K, 99021 kPa, m1 = 0.9499	848.81
398.15 K, 99624 kPa, m1 = 0.2335	802.67
398.15 K, 99816 kPa, m1 = 1.462	879.34
398.15 K, 99985 kPa, m1 = 2.833	951.65
398.15 K, 100000 kPa, m1 = 3.368	976.03
398.16 K, 5023 kPa, m1 = 3.368	900.37
398.16 K, 19941 kPa, m1 = 0.5972	757.12
398.16 K, 19974 kPa, m1 = 0.2335	731.71
398.16 K, 29947 kPa, m1 = 2.833	900.32
398.16 K, 60031 kPa, m1 = 1.462	851.51
398.16 K, 60122 kPa, m1 = 3.368	950.15
398.16 K, 69784 kPa, m1 = 2.833	932.03
398.16 K, 69947 kPa, m1 = 1.462	859.16
398.16 K, 69957 kPa, m1 = 3.368	956.94
398.16 K, 79919 kPa, m1 = 3.368	963.47
398.16 K, 80014 kPa, m1 = 0.2335	788.79
398.16 K, 89928 kPa, m1 = 1.462	872.71
398.16 K, 89993 kPa, m1 = 3.368	969.83
398.17 K, 5071 kPa, m1 = 0.5972	736.75
398.17 K, 9730 kPa, m1 = 0.5972	743.51
398.17 K, 59907 kPa, m1 = 0.5972	797.77
398.17 K, 59978 kPa, m1 = 0.2335	773.47
398.18 K, 1833 kPa, m1 = 2.272	839.1
398.18 K, 80059 kPa, m1 = 1.462	866.49
398.19 K, 99619 kPa, m1 = 2.272	923.71
398.22 K, 4702 kPa, m1 = 2.272	842.75

Source: the NIST ThermoML archive (doi:10.1021/je1003065)
